Experiment [1] addresses PAK4 kinase domain (PAK4 KD) (Homo sapiens (Human), UniProt O96013). Briefly: PAK4 kinase domain enzymatic assay (coupled PK/LDH, NADH absorbance at 340 nm). The experiment is classed as biochemical. The note with it: PAK4 kinase domain, 25 nM PAK4 KD, 0.04 mM ATP, pH 7.5.
Experiment [2] has as its target PAK4 kinase activity in whole cells (TR-293-KDG, modified HEK 293 overexpressing GEF-H1b and PAK4 KD) (Homo sapiens (Human), UniProt O96013). The experiment can be described thus: PAK4 cellular assay: sandwich ELISA of PAK4-dependent phosphorylation of GEF-H1b in TR-293-KDG cells. The experiment is classed as cell-based. The note with it: doxycycline-induced, 3-hour exposure, phospho-GEF-H1b ELISA. An excerpt:
A sandwich ELISA method was used to measure the PAK4 kinase activity in whole cells. The level of PAK4-dependent phosphorylation of GEF-H1b can be determined by monitoring the binding of a phosphospecific antibody to GEF-H1b. A modified HEK 293 cell line is used in the bioassay and it has been engineered to overexpress both GEF-H1b and the kinase domain (KD) of PAK4. The KD of PAK4 is inducible in this cell line by tetracycline (Trex system, Invitrogen). The name of this cell line has been designated TR-293-KDG. To establish a phosphorylation event on GEF-H1, cells are induced with doxycycline to express the PAK4 KD. […] Candidate substance effect is measured as the ability to block this phosphorylation event.
ELISA plate was prepared by pre-coating the plates with a capture antibody (α-HA-tag mouse monoclonal antibody), blocked with BSA, and washed in 0.1% tween 20 in tris-buffered saline (TBST). Tissue culture plates (precoated with poly-D-lysine) were seeded with TR-293-KDG cells. The TR-293-KDG Cells were induced to express the PAK4 KD with doxycycline overnight and subsequently & concomitantly treated with candidate substances or diluent for an additional 3-hour, continuous exposure. Cells were then lysed with a modified RIPA buffer supplemented with protease inhibitors. The fresh whole cell lysates were then added to the ELISA plate for 2-hours. Between all subsequent steps plates were washed 4 times with TBST. Detection antibody (recognizing the phospho-specific eptitope on GEF-H1b) was added for 1 hour, followed by addition of an enzyme linked goat α-rabbit secondary antibody for 45 minutes. […] EC50 values were calculated by sigmoid curve fitting using a four-parameter analysis.
Background: ELISA stands for enzyme-linked immunosorbent assay.

Each structure is given as a SMILES string.

What is called Ki is the dissociation constant of the complex between target and ligand, obtained from inhibition or displacement. Lower therefore signals tighter binding. For orientation: EC50 means the concentration at which the effect is half-maximal. Low values mean higher potency in that assay, high ones lower potency in that assay.

Chain of PAK4 kinase activity in whole cells (TR-293-KDG, modified HEK 293 overexpressing GEF-H1b and PAK4 KD) (O96013 321-572): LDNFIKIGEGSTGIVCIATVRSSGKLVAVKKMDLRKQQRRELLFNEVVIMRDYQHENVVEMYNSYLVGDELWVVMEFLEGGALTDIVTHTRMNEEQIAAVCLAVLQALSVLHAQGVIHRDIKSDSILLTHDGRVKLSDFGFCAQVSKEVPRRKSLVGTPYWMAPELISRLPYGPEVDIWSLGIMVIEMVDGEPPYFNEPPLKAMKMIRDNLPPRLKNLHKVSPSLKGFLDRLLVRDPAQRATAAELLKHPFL
Chain of PAK4 kinase domain (PAK4 KD) (O96013 321-572): as above

With `CN(C)c1nc(Cl)nc(Nc2n[nH]c3c2CN(C(=O)N[C@@H]2C[C@H]2c2ccccc2)C3(C)C)n1` (relative stereo) [Example 15, 3-{[4-chloro-6-(dimethylamino)-1,3,5-triazin-2-yl]amino}-6,6-dimethyl-N-[trans-2-phenylcyclopropyl]-4,6-dihydropyrrolo [3,4-c]pyrazole-5(1H)-carboxamide], in experiment [1], the Ki amounted to 90 nM. A half-maximal effect in experiment [2] (EC50) was put at 500 nM.

For the molecule `CC1(C)c2[nH]nc(Nc3ncnc4sccc34)c2CN1C(=O)N[C@@H]1C[C@H]1c1ccccc1` [Example 50, 6,6-dimethyl-N-[(1R,2S)-2-phenylcyclopropyl]-3-(thieno[2,3-d]pyrimidin-4-ylamino)-4,6-dihydropyrrolo[3,4-c]pyrazole-5(1H)-carboxamide], affinity in experiment [1] was put at a Ki of 16 nM. Also, in experiment [2], the half-maximal effective concentration (EC50) was 340 nM.

With `CN(C)C[C@@H](OC(=O)N1Cc2c(Nc3ncnc4sccc34)n[nH]c2C1(C)C)c1ccccc1` [Example 75, (1S)-2-(dimethylamino)-1-phenylethyl 6,6-dimethyl-3-(thieno[2,3-d]pyrimidin-4-ylamino)-4,6-dihydropyrrolo[3,4-c]pyrazole-5(1H)-carboxylate], in experiment [1], the inhibition constant (Ki) was determined as 5.2 nM. Further, the EC50 in experiment [2] was under 3.9 nM.

`Cc1nc(Nc2n[nH]c3c2CN(C(=O)N[C@@H]2C[C@H]2c2ccccc2)C3(C)C)cc(N2CCOCC2)n1` (relative stereo) [Example 34, 6,6-dimethyl-3-[(2-methyl-6-morpholin-4-ylpyrimidin-4-yl)amino]-N-[trans-2-phenylcyclopropyl]-4,6-dihydropyrrolo[3,4-c]pyrazole-5(1H)-carboxamide]: in experiment [1], the Ki worked out at 21 nM. Moreover, the EC50 in experiment [2] is 778 nM.

On to `CC1(C)c2[nH]nc(Nc3ncnc4ccoc34)c2CN1C(=O)N[C@H]1C[C@@H]1c1ccccc1` (relative stereo) [Example 53, 3-(furo[3,2-d]pyrimidin-4-ylamino)-6,6-dimethyl-N-(trans-2-phenylcyclopropyl)-4,6-dihydropyrrolo[3,4-c]pyrazole-5(1H)-carboxamide], for which the inhibitory constant (Ki) in experiment [1] was determined as 67 nM. Further, the EC50 in experiment [2] is 1740 nM.

`Cc1csc2c(Nc3n[nH]c4c3CN(C(=O)N[C@H]3C[C@@H]3c3ccccc3)C4(C)C)ncnc12` (relative stereo) [Example 49, 6,6-dimethyl-3-[(7-methylthieno[3,2-d]pyrimidin-4-yl)amino]-N-[trans-2-phenylcyclopropyl]-4,6-dihydropyrrolo[3,4-c]pyrazole-5(1H)-carboxamide] came in with a Ki in experiment [1] of 160 nM. Moreover, a half-maximal response in experiment [2] (EC50) required 332 nM.

With `COc1nc(Cl)nc(Nc2n[nH]c3c2CN(C(=O)N[C@@H]2C[C@H]2c2ccccc2)C3(C)C)n1` (relative stereo) [Example 10, 3-[(4-chloro-6-methoxy-1,3,5-triazin-2-yl)amino]-6,6-dimethyl-N-[trans-2-phenylcyclopropyl]-4,6-dihydropyrrolo[3,4-c]pyrazole-5(1H)-carboxamide], in experiment [1], the Ki came to 120 nM. The same molecule displayed an EC50 in experiment [2] of over 4000 nM.

On to `CN(C)C[C@@H](OC(=O)N1Cc2c(Nc3ncnc4c3ncn4C)n[nH]c2C1(C)C)c1ccccc1` [Example 78, (1S)-2-(dimethylamino)-1-phenylethyl 6,6-dimethyl-3-[(9-methyl-9H-purin-6-yl)amino]-4,6-dihydropyrrolo[3,4-c]pyrazole-5(1H)-carboxylate], for which, in experiment [1], the affinity, expressed as Ki, was 330 nM. Also, the EC50 in experiment [2] was over 4000 nM.

For the molecule `CC1(C)c2[nH]nc(Nc3nc(Cl)nc4ccccc34)c2CN1C(=O)NC1CC1c1ccccc1` (stereo not drawn) [Example 12, 3-[(2-chloroquinazolin-4-yl)amino]-6,6-dimethyl-N-[(trans-2-phenylcyclopropyl]-4,6-dihydropyrrolo[3,4-c]pyrazole-5(1H)-carboxamide], in experiment [1], the inhibition constant Ki worked out at 38 nM. The midpoint of the response in experiment [2], the EC50, lay at 78 nM.
